Experimental data from the NIST ThermoML archive (doi:10.1016/j.fluid.2010.10.028).
± gives the expanded uncertainty stated by the source.

Experiment: xn = mol fraction of the nth substance listed
Details: Liquid, Vibrating tube method

CC(C)=O [acetone] + CCCCCCC
Details	mass density [kg/m3]
367.5 K, 89850 kPa, x1 = 0.801	760.09 ± 1.5
367.5 K, 89870 kPa, x1 = 0.492	727.6 ± 1.6
367.5 K, 94840 kPa, x1 = 0.801	763.33 ± 1.5
367.5 K, 94860 kPa, x1 = 0.492	730.65 ± 1.6
367.5 K, 99820 kPa, x1 = 0.801	766.48 ± 1.5
367.5 K, 104790 kPa, x1 = 0.801	769.51 ± 1.5
367.5 K, 109770 kPa, x1 = 0.801	772.47 ± 1.6
367.5 K, 114840 kPa, x1 = 0.801	775.42 ± 1.6
367.5 K, 119830 kPa, x1 = 0.801	778.22 ± 1.6
367.5 K, 124850 kPa, x1 = 0.801	780.96 ± 1.6
367.5 K, 129850 kPa, x1 = 0.801	783.62 ± 1.6
377.39 K, 1230 kPa, x1 = 0.611	632.91 ± 1.2
377.39 K, 4860 kPa, x1 = 0.611	640.68 ± 1.2
377.39 K, 9830 kPa, x1 = 0.7024	659.14 ± 1.2
377.39 K, 9860 kPa, x1 = 0.611	650.09 ± 1.2
377.39 K, 14860 kPa, x1 = 0.611	658.35 ± 1.2
377.39 K, 39860 kPa, x1 = 0.611	690.09 ± 1.3
377.39 K, 74880 kPa, x1 = 0.611	720.69 ± 1.5
377.39 K, 84850 kPa, x1 = 0.611	727.78 ± 1.5
377.39 K, 99800 kPa, x1 = 0.611	737.52 ± 1.6
377.39 K, 119850 kPa, x1 = 0.611	749.19 ± 1.7
377.39 K, 124860 kPa, x1 = 0.611	751.9 ± 1.7
377.4 K, 1220 kPa, x1 = 0.492	624.83 ± 1.2
377.4 K, 1220 kPa, x1 = 0.7024	641.88 ± 1.2
377.4 K, 1230 kPa, x1 = 0.801	652.62 ± 1.2
377.4 K, 4820 kPa, x1 = 0.7024	649.63 ± 1.2
377.4 K, 4850 kPa, x1 = 0.801	660.44 ± 1.2
377.4 K, 4860 kPa, x1 = 0.492	632.5 ± 1.2
377.4 K, 9850 kPa, x1 = 0.492	641.73 ± 1.2
377.4 K, 9860 kPa, x1 = 0.801	669.95 ± 1.2
377.4 K, 14830 kPa, x1 = 0.7024	667.51 ± 1.2
377.4 K, 14850 kPa, x1 = 0.801	678.33 ± 1.2
377.4 K, 14860 kPa, x1 = 0.492	649.89 ± 1.2
377.4 K, 19830 kPa, x1 = 0.7024	675.07 ± 1.3
377.4 K, 19850 kPa, x1 = 0.492	657.2 ± 1.3
377.4 K, 19850 kPa, x1 = 0.801	685.9 ± 1.3
377.4 K, 19860 kPa, x1 = 0.611	665.8 ± 1.3
377.4 K, 24840 kPa, x1 = 0.492	663.85 ± 1.3
377.4 K, 24840 kPa, x1 = 0.7024	681.95 ± 1.3
377.4 K, 24860 kPa, x1 = 0.611	672.6 ± 1.3
377.4 K, 24870 kPa, x1 = 0.801	692.89 ± 1.3
377.4 K, 29840 kPa, x1 = 0.7024	688.29 ± 1.3
377.4 K, 29860 kPa, x1 = 0.611	678.86 ± 1.3
377.4 K, 34830 kPa, x1 = 0.7024	694.18 ± 1.3
377.4 K, 34840 kPa, x1 = 0.492	675.68 ± 1.3
377.4 K, 34870 kPa, x1 = 0.611	684.68 ± 1.3
377.4 K, 39820 kPa, x1 = 0.7024	699.65 ± 1.3
377.4 K, 39850 kPa, x1 = 0.492	681.01 ± 1.3
377.4 K, 44820 kPa, x1 = 0.7024	704.82 ± 1.3
377.4 K, 44850 kPa, x1 = 0.611	695.17 ± 1.4
377.4 K, 44870 kPa, x1 = 0.492	686.02 ± 1.4
377.4 K, 49820 kPa, x1 = 0.7024	709.68 ± 1.4
377.4 K, 49840 kPa, x1 = 0.492	690.72 ± 1.4
377.4 K, 49850 kPa, x1 = 0.611	699.96 ± 1.4
377.4 K, 54810 kPa, x1 = 0.7024	714.29 ± 1.4
377.4 K, 54870 kPa, x1 = 0.801	725.65 ± 1.4
377.4 K, 54930 kPa, x1 = 0.611	704.59 ± 1.4
377.4 K, 59810 kPa, x1 = 0.7024	718.67 ± 1.4
377.4 K, 59840 kPa, x1 = 0.492	699.41 ± 1.4
377.4 K, 59850 kPa, x1 = 0.801	730.07 ± 1.4
377.4 K, 59940 kPa, x1 = 0.611	708.91 ± 1.4
377.4 K, 64790 kPa, x1 = 0.7024	722.84 ± 1.4
377.4 K, 64830 kPa, x1 = 0.801	734.28 ± 1.4
377.4 K, 64920 kPa, x1 = 0.611	713 ± 1.4
377.4 K, 69890 kPa, x1 = 0.7024	726.94 ± 1.4
377.4 K, 69900 kPa, x1 = 0.611	716.92 ± 1.5
377.4 K, 69920 kPa, x1 = 0.492	707.37 ± 1.5
377.4 K, 69930 kPa, x1 = 0.801	738.44 ± 1.4
377.4 K, 74790 kPa, x1 = 0.4	757.14 ± 1.4
377.4 K, 74790 kPa, x1 = 0.8992	757.14 ± 1.4
377.4 K, 74870 kPa, x1 = 0.7024	730.75 ± 1.5
377.4 K, 74920 kPa, x1 = 0.801	742.33 ± 1.4
377.4 K, 79860 kPa, x1 = 0.7024	734.43 ± 1.5
377.4 K, 79880 kPa, x1 = 0.611	724.31 ± 1.5
377.4 K, 79890 kPa, x1 = 0.492	714.63 ± 1.5
377.4 K, 79910 kPa, x1 = 0.801	746.08 ± 1.5
377.4 K, 84840 kPa, x1 = 0.7024	737.97 ± 1.5
377.4 K, 84870 kPa, x1 = 0.492	718.02 ± 1.6
377.4 K, 84910 kPa, x1 = 0.801	749.68 ± 1.5
377.4 K, 89820 kPa, x1 = 0.7024	741.37 ± 1.5
377.4 K, 89840 kPa, x1 = 0.611	731.15 ± 1.6
377.4 K, 89860 kPa, x1 = 0.492	721.32 ± 1.6
377.4 K, 89880 kPa, x1 = 0.801	753.15 ± 1.5
377.4 K, 94790 kPa, x1 = 0.7024	744.65 ± 1.6
377.4 K, 94820 kPa, x1 = 0.611	734.38 ± 1.6
377.4 K, 94830 kPa, x1 = 0.492	724.48 ± 1.6
377.4 K, 94860 kPa, x1 = 0.801	756.48 ± 1.5
377.4 K, 99780 kPa, x1 = 0.7024	747.85 ± 1.6
377.4 K, 99820 kPa, x1 = 0.492	727.55 ± 1.6
377.4 K, 99840 kPa, x1 = 0.801	759.75 ± 1.5
377.4 K, 104750 kPa, x1 = 0.7024	750.93 ± 1.6
377.4 K, 104780 kPa, x1 = 0.611	740.53 ± 1.6
